Key:
[1] = system: GR/MR balance; assay: GR and MR expression in the cornea/limbus of rats with limbal deficiency; format: in vivo, rat
From the text: FIG. 4. Spironolactone up-regulates GR and the GR/MR balance in favor of GR pathway activation. The corneal de-epithelialization and limbal deficiency model induces a down regulation of GR genes at day 3 and 7, and is restored at day 14 when the cornea is healed. […] Spironolactone normalizes the GR/MR balance, favoring GR pathway activation.
Thus, spironolactone normalizes the GR/MR balance, favoring GR pathway activation.

[2] = system: corneal neovascularization induced by limbal deficiency; assay: rat model of CN induced by de-epithelialization and limbal resection; format: in vivo; conditions: for corneal edema / corneal neovascularization / corneal re-epithelialization / corneal thickness: rat, limbal deficiency
From the text: FIG. 1. Corneal de-epthelialization and limbal resection model treatment schemes.
Corneal neovascularization (CN) is a severe vision-threatening complication of OR.

[3] = system: genes regulated in the cornea and limbus; assay: full transcriptomic regulation in the cornea and limbus; format: in vivo, rat; conditions: cornea and limbus at 3 and 7 days
From the text: A full transcriptomic regulation induced in the cornea and limbus at 3 and 7 days after spironolactone systemic injection alone or with TA has been realized.

Compound	GR expression in the cornea ([1]; day 3 and 7)	MR expression ([1]; rat, in vivo)	infiltration of ED1 positive inflammatory cells in corneal lesions ([2]; corneal sections at day 3)	infiltration of IBA1-positive macrophages in corneal lesions ([2]; corneal sections at day 3)	corneal edema [2]	corneal neovascularization [2]	corneal re-epithelialization [2]	corneal thickness [2]	corneal re-epithelialization (corneal wound) delayed by the TA injection ([2]; spironolactone given with TA injection)	genes up or down regulated [3]
CC(=O)S[C@@H]1CC2=CC(=O)CC[C@]2(C)[C@H]2CC[C@@]3(C)[C@@H](CC[C@@]34CCC(=O)O4)[C@H]12 [spironolactone, 17-hydroxy-7α-mercapto-3-oxo-17α-pregn-4-ene-21-carboxylic acid γ-lactone acetate]	up regulates and normalizes	does not influence	reduced infiltration	reduced infiltration	decrease	inhibited	improved	decrease	improved	75 genes
COC(=O)[C@@H]1CC2=CC(=O)CC[C@]2(C)[C@@]23O[C@@H]2C[C@@]2(C)[C@@H](CC[C@@]24CCC(=O)O4)[C@H]13 [eplerenone, Pregn-4-ene-7,21-dicarboxylic acid, 9,11-epoxy-17-hydroxy-3-oxo-,γ-lactone, methyl ester, (7α, 11α, 17β)]	–	–	–	–	decrease	inhibited	improved	decrease	–	–
